Results: paper PMC7795354, “Development of Radiogallium-Labeled Peptides for Platelet-Derived Growth Factor Receptor β (PDGFRβ) Imaging: Influence of Different Linkers” (Molecules, 2020)
Values joined by “and” are separate entries in the source; they are usually repeats but may differ in a detail not shown here. Equal values may be shown once. Read-outs that look alike come from different tables or passages of the source. Where a SMILES comes first, the peptide text is derived from it. The star is where a group is joined. DOTA = O=C(O)CN1CCN(CC(=O)O)CCN(CC(=O)*)CCN(CC(=O)O)CC1; AEEA = NCCOCCOCC(=O)O

Legend:
[1] = Octanol-water partition coefficient (log P), shake-flask; conditions: n-octanol/PBS, pH 7.4
Procedure: The octanol-water partition coefficients for radiotracers were determined via the assessment of their distribution in n-octanol and PBS (pH 7.4) using shake-flask method as described previously [48]. Radioactivity of each layer was measured using auto well gamma counter (n = 4).

[2] = In vitro stability in PBS pH 7.4; conditions: 37 °C, 0.1 M PBS pH 7.4
Procedure: (§3) Briefly, the solution of radiotracers (37 kBq/well, 50 µL) in a sealed tube containing 0.1 M PBS pH 7.4 (450 µL) was incubated at 37 °C for 24 h. At 3 and 24 h after incubation, the purity of radiotracers was analyzed by RP-HPLC. Meanwhile, for stability assay in murine plasma, radiotracers were mixed in murine plasma at a ratio of 1:10. After incubation at 37 °C for 10 min and 1 h, an equivalent amount of ice-cold acetonitrile was added. After centrifugation at 1000× g at 4 °C for 10 min, the supernatant was filtered through a 0.45-µm filter followed by analyzing using RP-HPLC as described above. Then, the radiochemical purities were determined.

[3] = In vitro stability in murine plasma; conditions: 37 °C
Procedure: as §3

[4] = Biodistribution in BxPC3-luc tumor-bearing mice; format: in vivo, BALB/c nu/nu mice; conditions: female, BALB/c nu/nu, iv, total radioactivity
Procedure: (§1) All animal handling procedures were approved by the Kanazawa University Animal Care Committee. Experiments with animals were conducted in accordance with the Guidelines for the Care and Use of Laboratory Animals of Kanazawa University. The animals were housed with free access to food and water at 23 °C with a 12 h light/dark schedule. Four-week-old female BALB/c nu/nu mice (12–17 g) were purchased from Japan SLC Inc. (Hamamatsu, Japan). The tumor-bearing model was prepared by subcutaneous inoculation of 1 × 10^7 BxPC3-luc cells into left shoulder of female BALB/c nu/nu mice. The biodistribution experiment was performed approximately 4–5 weeks post-inoculation.
(§2) A saline solution of [^67Ga]27 or [^67Ga]28 (74 kBq, 100 µL) was injected intravenously into the tail vein of the mice. The mice were sacrificed at 10 min post-injection for [^67Ga]27 and 1 h post-injection for [^67Ga]27 or [^67Ga]28. For in vivo blocking studies, 100 μL of a mixed saline solution of [^67Ga]27 (74 kBq) and IPLPPPRRPFFK peptide (1 mg/mouse) was injected via tile vein into the tumor-bearing mice. The mice were sacrificed at 1 h post-injection. Tissues of interest were removed and weighed. The radioactivity of the tissues was determined using an auto well gamma counter, and counts were corrected for background radiation and physical decay during counting. The data were expressed as percent injected dose per gram tissue (%ID/g).

[5] = tested on: BxPC3-luc tumor-bearing mice; experiment: Biodistribution in BxPC3-luc tumor-bearing mice; format: in vivo, BALB/c nu/nu mice
Procedure: as §1, §2

[6] = Biodistribution in BxPC3-luc tumor-bearing mice; format: in vivo; conditions: female, BALB/c nu/nu, mouse, stomach, iv, 74 kBq, total radioactivity; 1 h post-injection

logP [1]: < -4
In vitro stability in PBS pH 7.4, percentage of remained intact radiotracer ([2]; 3 h): 96.9 ± 0.5%
In vitro stability in PBS pH 7.4, percentage of remained intact radiotracer ([2]; 24 h): 95.6 ± 0.4%
In vitro stability in murine plasma, percentage of remained intact radiotracer ([3]; 1 h, 60 min): 75.9 ± 1.2%
remaining at 10 min ([3]; mouse, plasma, In vitro stability in murine plasma, percentage of remained intact radiotracer, 10 min): 84.4 ± 2%
remaining at 1 h ([3]; mouse, plasma, In vitro stability in murine plasma, percentage of remained intact radiotracer, 1 h): > 75%
tissue uptake at 1 h ([4]; blood, 1 h, blocking: co-injection of IPLPPPRRPFFK 1 mg/mouse, read-out: Biodistribution, Blood): 0.93 %ID/g
tissue uptake at 1 h ([4]; bone, 1 h, blocking: co-injection of IPLPPPRRPFFK 1 mg/mouse, read-out: Biodistribution, Bone): 0.21 %ID/g
tissue uptake at 1 h ([4]; brain, 1 h, blocking: co-injection of IPLPPPRRPFFK 1 mg/mouse, read-out: Biodistribution, Brain): 0.02 %ID/g
tissue uptake at 1 h ([4]; heart, 1 h, blocking: co-injection of IPLPPPRRPFFK 1 mg/mouse, read-out: Biodistribution, Heart): 0.28 %ID/g
tissue uptake at 1 h ([4]; 1 h, blocking: co-injection of IPLPPPRRPFFK 1 mg/mouse, BxPC3-luc tumor, read-out: Biodistribution, Tumor): 0.96 %ID/g
tissue uptake at 1 h ([4]; kidney, 1 h, blocking: co-injection of IPLPPPRRPFFK 1 mg/mouse, read-out: Biodistribution, Kidney): 12.2 %ID/g
tissue uptake at 1 h ([4]; large intestine, 1 h, blocking: co-injection of IPLPPPRRPFFK 1 mg/mouse, read-out: Biodistribution, Large intestine): 0.25 %ID/g
tissue uptake at 1 h ([4]; liver, 1 h, blocking: co-injection of IPLPPPRRPFFK 1 mg/mouse, read-out: Biodistribution, Liver): 0.27 %ID/g
tissue uptake at 1 h ([4]; lung, 1 h, blocking: co-injection of IPLPPPRRPFFK 1 mg/mouse, read-out: Biodistribution, Lung): 0.66 %ID/g
tissue uptake at 10 min ([4]; mouse, blood, 74 kBq, 10 min post-injection, i.v., read-out: Biodistribution, Blood): 3.87 %ID/g
tissue uptake at 1 h ([4]; mouse, blood, 74 kBq, 1 h post-injection, i.v., read-out: Biodistribution, Blood): 0.15 %ID/g
tissue uptake at 10 min ([4]; mouse, bone, 74 kBq, 10 min post-injection, i.v., read-out: Biodistribution, Bone): 1.62 %ID/g
tissue uptake at 1 h ([4]; mouse, bone, 74 kBq, 1 h post-injection, i.v., read-out: Biodistribution, Bone): 0.24 %ID/g
tissue uptake at 10 min ([4]; mouse, brain, 74 kBq, 10 min post-injection, i.v., read-out: Biodistribution, Brain): 0.13 %ID/g
tissue uptake at 1 h ([4]; mouse, brain, 74 kBq, 1 h post-injection, i.v., read-out: Biodistribution, Brain): 0.01 %ID/g
tissue uptake at 10 min ([4]; mouse, heart, 74 kBq, 10 min post-injection, i.v., read-out: Biodistribution, Heart): 1.47 %ID/g
tissue uptake at 1 h ([4]; mouse, heart, 74 kBq, 1 h post-injection, i.v., read-out: Biodistribution, Heart): 0.07 %ID/g
tissue uptake at 10 min ([4]; mouse, 74 kBq, 10 min post-injection, i.v., BxPC3-luc tumor, read-out: Biodistribution, Tumor): 3.11 %ID/g
tissue uptake at 1 h ([4]; mouse, 74 kBq, 1 h post-injection, i.v., BxPC3-luc tumor, read-out: Biodistribution, Tumor): 0.39 %ID/g
tissue uptake at 10 min ([4]; mouse, kidney, 74 kBq, 10 min post-injection, i.v., read-out: Biodistribution, Kidney): 13.9 %ID/g
tissue uptake at 1 h ([4]; mouse, kidney, 74 kBq, 1 h post-injection, i.v., read-out: Biodistribution, Kidney): 3.07 %ID/g
tissue uptake at 10 min ([4]; mouse, large intestine, 74 kBq, 10 min post-injection, i.v., read-out: Biodistribution, Large intestine): 0.87 %ID/g
tissue uptake at 1 h ([4]; mouse, large intestine, 74 kBq, 1 h post-injection, i.v., read-out: Biodistribution, Large intestine): 0.13 %ID/g
tissue uptake at 10 min ([4]; mouse, liver, 74 kBq, 10 min post-injection, i.v., read-out: Biodistribution, Liver): 0.9 %ID/g
tissue uptake at 1 h ([4]; mouse, liver, 74 kBq, 1 h post-injection, i.v., read-out: Biodistribution, Liver): 0.22 %ID/g
tissue uptake at 10 min ([4]; mouse, lung, 74 kBq, 10 min post-injection, i.v., read-out: Biodistribution, Lung): 3.7 %ID/g
tissue uptake at 1 h ([4]; mouse, lung, 74 kBq, 1 h post-injection, i.v., read-out: Biodistribution, Lung): 0.46 %ID/g
tissue uptake at 10 min ([4]; mouse, muscle, 74 kBq, 10 min post-injection, i.v., read-out: Biodistribution, Muscle): 0.86 %ID/g
tissue uptake at 1 h ([4]; mouse, muscle, 74 kBq, 1 h post-injection, i.v., read-out: Biodistribution, Muscle): 0.07 %ID/g
tissue uptake at 10 min ([4]; mouse, pancreas, 74 kBq, 10 min post-injection, i.v., read-out: Biodistribution, Pancreas): 0.89 %ID/g
tissue uptake at 1 h ([4]; mouse, pancreas, 74 kBq, 1 h post-injection, i.v., read-out: Biodistribution, Pancreas): 0.13 %ID/g
tissue uptake at 10 min ([4]; mouse, small intestine, 74 kBq, 10 min post-injection, i.v., read-out: Biodistribution, Small intestine): 1.16 %ID/g
tissue uptake at 1 h ([4]; mouse, small intestine, 74 kBq, 1 h post-injection, i.v., read-out: Biodistribution, Small intestine): 0.63 %ID/g
tissue uptake at 10 min ([4]; mouse, spleen, 74 kBq, 10 min post-injection, i.v., read-out: Biodistribution, Spleen): 0.99 %ID/g
tissue uptake at 1 h ([4]; mouse, spleen, 74 kBq, 1 h post-injection, i.v., read-out: Biodistribution, Spleen): 0.13 %ID/g
tissue uptake dose at 10 min ([4]; mouse, stomach, 74 kBq, 10 min post-injection): 0.19 %ID
tissue to tissue ratio at 10 min ([4]; mouse, tumor/blood, 74 kBq, 10 min post-injection): 0.81
tissue to tissue ratio at 1 h ([4]; mouse, tumor/blood, 74 kBq, 1 h post-injection): 2.61
tissue uptake at 1 h ([4]; muscle, 1 h, blocking: co-injection of IPLPPPRRPFFK 1 mg/mouse, read-out: Biodistribution, Muscle): 0.22 %ID/g
tissue uptake at 1 h ([4]; pancreas, 1 h, blocking: co-injection of IPLPPPRRPFFK 1 mg/mouse, read-out: Biodistribution, Pancreas): 0.21 %ID/g
tissue uptake at 1 h ([4]; small intestine, 1 h, blocking: co-injection of IPLPPPRRPFFK 1 mg/mouse, read-out: Biodistribution, Small intestine): 0.66 %ID/g
tissue uptake at 1 h ([4]; spleen, 1 h, blocking: co-injection of IPLPPPRRPFFK 1 mg/mouse, read-out: Biodistribution, Spleen): 0.29 %ID/g
tissue uptake dose at 1 h ([4]; stomach, 1 h, blocking: co-injection of IPLPPPRRPFFK 1 mg/mouse): 0.05 %ID
tissue to tissue ratio at 1 h ([4]; tumor/blood, 1 h, blocking: co-injection of IPLPPPRRPFFK 1 mg/mouse): 1.19
Tumor/Blood ratio ([5]; 1 h, blocking: co-injection of IPLPPPRRPFFK 1 mg/mouse): significantly decreased
Tumor/Blood ratio ([5]; 1 h post-injection, i.v.): 2.61 and 2.61 ± 0.75
tissue uptake dose at 1 h [6]: 0.06 %ID
Structure (SMILES): CC[C@H](C)[C@H](NC(=O)COCCOCCNC(=O)CN1CCN(CC(=O)O)CCN(CC(=O)O)CCN(CC(=O)O)CC1)C(=O)N1CCC[C@H]1C(=O)N[C@@H](CC(C)C)C(=O)N1CCC[C@H]1C(=O)N1CCC[C@H]1C(=O)N1CCC[C@H]1C(=O)N[C@@H](CCCNC(=N)N)C(=O)N[C@@H](CCCNC(=N)N)C(=O)N1CCC[C@H]1C(=O)N[C@@H](Cc1ccccc1)C(=O)N[C@@H](Cc1ccccc1)C(=O)N[C@@H](CCCCN)C(=O)O [[^67Ga]27, [^67Ga]Ga-DOTA-EG2-IPLPPPRRPFFK, metal not drawn] ({DOTA-AEEA}-IPLPPPRRPFFK-OH)
